Results on twelve compounds are retold here after ChEMBL document CHEMBL3102699, “Synthesis and evaluation of 4-substituted piperidines and piperazines as balanced affinity μ opioid receptor (MOR) agonist/δ opioid receptor (DOR) antagonist ligands” (Bioorg Med Chem Lett, 2014).

Assay [1] concerns the target T1, Kappa-type opioid receptor (Homo sapiens, UniProt P41145). Put plainly: Agonist activity at human kappa opioid receptor expressed in CHO cells assessed as stimulation of [35S]-GTPgammaS binding after 1 hr by liquid scintillation counting analysis. In kind it is functional, cell-based. Background: Binding of GTPγS marks nucleotide exchange on a G protein.
The target in assay [2] is T2, Mu-type opioid receptor (Rattus norvegicus, UniProt P33535). Kind of assay: Agonist activity at rat mu opioid receptor expressed in rat C6 cells assessed as stimulation of [35S]-GTPgammaS binding after 1 hr by liquid scintillation counting analysis. Type of assay: functional, cell-based.
The target of assay [3] is T1, Kappa-type opioid receptor. Put plainly: Displacement of [3H]diprenorphine from human kappa opioid receptor expressed in CHO cell membranes after 1 hr by liquid scintillation counting analysis. (In general: Loss of bound radioactivity is the signal in a displacement assay; it reports binding, not function.)
Assay [4] has as its target T2, Mu-type opioid receptor. Kind of assay: Displacement of [3H]diprenorphine from rat mu opioid receptor expressed in rat C6 cell membranes after 1 hr by liquid scintillation counting analysis.
Assay [5] addresses T3, Delta-type opioid receptor (Rattus norvegicus, UniProt P33533). Kind of assay: Displacement of [3H]diprenorphine from rat delta opioid receptor expressed in rat C6 cell membranes after 1 hr by liquid scintillation counting analysis.
The target in assay [6] is T3, Delta-type opioid receptor. Put plainly: Agonist activity at rat delta opioid receptor expressed in rat C6 cells assessed as stimulation of [35S]-GTPgammaS binding after 1 hr by liquid scintillation counting analysis. In kind it is functional, cell-based.
The target in assay [7] is Mu-type opioid receptor (Rattus norvegicus) (UniProt P33535). Kind of assay: Agonist activity at rat mu opioid receptor expressed in rat C6 cells assessed as stimulation of [35S]-GTPgammaS binding at 10 uM after 1 hr by liquid scintillation counting analysis relative to DAMGO. Type of assay: functional, cell-based.
The target in assay [8] is T1, Kappa-type opioid receptor. Kind of assay: Agonist activity at human kappa opioid receptor expressed in CHO cells assessed as stimulation of [35S]-GTPgammaS binding at 10 uM after 1 hr by liquid scintillation counting analysis relative to U69,593. In kind it is functional, cell-based.
Assay [9] has as its target Mu-type opioid receptor (Homo sapiens, UniProt P35372). Put plainly: Binding affinity to mu opioid receptor (unknown origin).
In assay [10] the target is T1, Kappa-type opioid receptor. Put plainly: Binding affinity to kappa opioid receptor (unknown origin).
The target in assay [11] is Delta-type opioid receptor (Homo sapiens, UniProt P41143). Put plainly: Binding affinity to delta opioid receptor (unknown origin).
Chain of Delta-type opioid receptor (Homo sapiens, UniProt P41143) (P41143 whole entry): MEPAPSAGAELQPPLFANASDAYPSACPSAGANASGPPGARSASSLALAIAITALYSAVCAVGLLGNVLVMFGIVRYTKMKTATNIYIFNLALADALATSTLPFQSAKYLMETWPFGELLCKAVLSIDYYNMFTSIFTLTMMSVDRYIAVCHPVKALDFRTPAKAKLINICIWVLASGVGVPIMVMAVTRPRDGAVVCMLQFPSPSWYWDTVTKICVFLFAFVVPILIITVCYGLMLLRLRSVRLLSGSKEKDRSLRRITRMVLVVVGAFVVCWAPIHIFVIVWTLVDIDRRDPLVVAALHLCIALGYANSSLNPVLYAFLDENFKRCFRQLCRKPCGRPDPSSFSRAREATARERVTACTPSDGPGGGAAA

T2 sequence (P33535 whole entry): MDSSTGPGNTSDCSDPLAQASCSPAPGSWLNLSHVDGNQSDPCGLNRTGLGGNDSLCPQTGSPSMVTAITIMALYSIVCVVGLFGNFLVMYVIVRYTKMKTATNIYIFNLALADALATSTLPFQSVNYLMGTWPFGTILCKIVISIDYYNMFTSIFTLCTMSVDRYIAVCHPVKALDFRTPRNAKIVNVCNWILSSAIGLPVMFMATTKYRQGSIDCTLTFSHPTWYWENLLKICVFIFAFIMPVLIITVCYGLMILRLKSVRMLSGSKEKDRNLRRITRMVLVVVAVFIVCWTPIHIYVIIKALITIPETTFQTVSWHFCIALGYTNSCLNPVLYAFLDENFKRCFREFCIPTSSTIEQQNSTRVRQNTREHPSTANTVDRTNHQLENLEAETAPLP
Chain of Mu-type opioid receptor (Rattus norvegicus) (P33535 whole entry): as above
T3 sequence (P33533 whole entry): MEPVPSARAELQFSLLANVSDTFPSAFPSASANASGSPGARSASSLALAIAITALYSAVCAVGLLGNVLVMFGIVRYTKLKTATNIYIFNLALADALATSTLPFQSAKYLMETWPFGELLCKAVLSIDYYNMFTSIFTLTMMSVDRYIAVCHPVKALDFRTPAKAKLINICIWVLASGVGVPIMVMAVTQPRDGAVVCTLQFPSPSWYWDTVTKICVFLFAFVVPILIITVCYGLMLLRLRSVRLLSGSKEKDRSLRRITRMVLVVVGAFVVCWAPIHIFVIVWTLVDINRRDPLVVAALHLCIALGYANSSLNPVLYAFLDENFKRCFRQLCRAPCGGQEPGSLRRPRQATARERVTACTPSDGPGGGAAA
T1 sequence (P41145 whole entry): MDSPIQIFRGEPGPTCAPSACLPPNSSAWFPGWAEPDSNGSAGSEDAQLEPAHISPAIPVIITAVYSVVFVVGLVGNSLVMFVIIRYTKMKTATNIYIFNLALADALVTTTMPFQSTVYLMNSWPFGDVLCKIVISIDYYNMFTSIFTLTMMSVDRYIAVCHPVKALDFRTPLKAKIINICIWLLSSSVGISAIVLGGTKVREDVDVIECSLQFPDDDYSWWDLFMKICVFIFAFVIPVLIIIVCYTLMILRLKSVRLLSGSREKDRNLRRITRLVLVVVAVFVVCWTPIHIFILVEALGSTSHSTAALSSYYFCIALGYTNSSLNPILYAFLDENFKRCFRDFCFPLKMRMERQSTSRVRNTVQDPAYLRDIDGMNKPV
Chain of Mu-type opioid receptor (Homo sapiens, UniProt P35372) (P35372 whole entry): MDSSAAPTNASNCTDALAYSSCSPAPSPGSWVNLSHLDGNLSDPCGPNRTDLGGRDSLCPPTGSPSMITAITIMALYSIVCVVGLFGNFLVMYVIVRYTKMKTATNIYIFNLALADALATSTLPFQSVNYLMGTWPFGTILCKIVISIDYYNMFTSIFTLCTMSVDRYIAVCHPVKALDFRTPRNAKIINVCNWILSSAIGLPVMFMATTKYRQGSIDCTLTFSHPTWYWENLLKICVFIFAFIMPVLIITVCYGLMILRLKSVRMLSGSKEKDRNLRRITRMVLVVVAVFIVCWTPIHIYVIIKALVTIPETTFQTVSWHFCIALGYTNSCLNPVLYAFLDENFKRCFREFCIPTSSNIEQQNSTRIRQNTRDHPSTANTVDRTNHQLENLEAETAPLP

Turning to `Cc1cc(O)cc(C)c1C[C@H](N)C(=O)N1CCN(CCCc2ccccc2)CC1`, the EC50 entry is “Not Active” in assay [1] (cho), 150 nM on Mu-type opioid receptor [2] (read-out: EC50) and “Not Active” in [6]. Also, the Ki in assay [3] stood at 250 nM; on Mu-type opioid receptor [4] it was 3.8 nM; in assay [5] it was 36 nM. Further, the %max in [7] is 23%.
Take `Cc1cc(O)cc(C)c1C[C@H](N)C(=O)N1CCN(C/C=C/Cc2ccccc2)CC1`: the results for the EC50 (at Mu-type opioid receptor [2] (read-out: EC50); in [6]) were 20 nM and “Not Active”, respectively. In addition, the Ki at Mu-type opioid receptor [4] came to 0.29 nM; in assay [5], 23 nM. The %max in assay [7] worked out at 36%.
With `Cc1cc(O)cc(C)c1C[C@H](N)C(=O)N1CCN(CCCCc2ccccc2)CC1`, the half-maximal effective concentration (EC50) result was “Not Active” in assay [1] (cho), 64 nM on Mu-type opioid receptor [2] (read-out: EC50) and “Not Active” in [6]. Further, the results for the inhibitory constant (Ki) (in [3]; on Mu-type opioid receptor [4]; in [5]) were 78 nM, 0.45 nM and 6.6 nM, respectively. For the same compound, the %max in assay [7] was 43%.
Take `Cc1cc(O)cc(C)c1C[C@H](N)C(=O)N1CCC(Cc2ccccc2)c2ccccc21` (stereo partly specified): the half-maximal effective concentration (EC50) result (in assay [1] (cho); on Mu-type opioid receptor [2] (c6); in [6]) was “Not Active” each time. The values for the Ki (in assay [3]; on Mu-type opioid receptor [4]; in assay [5]) were 310 nM, 29 nM and 14 nM, respectively.
Consider `Cc1cc(O)cc(C)c1C[C@H](N)C(=O)N1CCN(C/C=C/c2cccc3ccccc23)CC1`, for which the EC50 result (in assay [1] (cho); at Mu-type opioid receptor [2] (c6); in assay [6]) was “Not Active” throughout.
For the compound `Cc1cc(O)cc(C)c1C[C@H](N)C(=O)N1CCN(C/C=C\Cc2ccccc2)CC1`, the EC50 entry is “Not Active” in assay [1] (cho), 41 nM at Mu-type opioid receptor [2] (read-out: EC50) and “Not Active” in assay [6]. For the same compound, the inhibition constant Ki at Mu-type opioid receptor [4] is 0.3 nM; in assay [5] it was 28 nM. Moreover, in assay [7], the %max was 49%.
Turning to `Cc1cc(O)cc(C)c1C[C@H](N)C(=O)N1CCN(CCC(c2ccccc2)c2ccccc2)CC1`, the EC50 entry (in assay [1] (cho); on Mu-type opioid receptor [2] (c6); in assay [6]) was “Not Active” throughout. Besides, the inhibition constant (Ki) in [3] worked out at 150 nM; on Mu-type opioid receptor [4], 1.1 nM; in [5] it was 21 nM.
In the case of `Cc1cc(O)cc(C)c1C[C@H](N)C(=O)N1CCN(CCCCCc2ccccc2)CC1`, the concentration giving a half-maximal response (EC50) in assay [1] (read-out: EC50) was 660 nM; on Mu-type opioid receptor [2] (read-out: EC50), 53 nM; in [6], “Not Active”. In addition, the results for the Ki (in [3]; at Mu-type opioid receptor [4]; in assay [5]) were 39 nM, 0.42 nM and 6.9 nM, respectively. For the same compound, the %max stood at 12% in [8] and 42% in assay [7].
`Cc1cc(O)cc(C)c1C[C@H](N)C(=O)N1CCCc2ccccc21`: the Ki at Mu-type opioid receptor [9] was determined as 25.8 nM; in assay [10], 36.5 nM; in [11] it was 33 nM.
Turning to `Cc1cc(O)cc(C)c1C[C@H](N)C(=O)N1CCC(Cc2ccccc2)CC1`, the EC50 entry (in [1] (cho); on Mu-type opioid receptor [2] (c6); in assay [6]) was “Not Active” each time. For the same compound, the Ki came out at 140 nM in assay [3], 1.4 nM on Mu-type opioid receptor [4] and 7.8 nM in assay [5].
On to `Cc1cc(O)cc(C)c1C[C@H](N)C(=O)N1CCN(CCCc2cccc3ccccc23)CC1`, for which the EC50 entry in assay [1] (cho) and in assay [6] was “Not Active” throughout.
`Cc1cc(O)cc(C)c1C[C@H](N)C(=O)N1CCC(CCCc2ccccc2)CC1`: the values for the EC50 result (in assay [1] (cho); at Mu-type opioid receptor [2] (read-out: EC50); in assay [6]) were “Not Active”, 119 nM and “Not Active”, respectively. For the same compound, the inhibition constant (Ki) in assay [3] worked out at 110 nM; on Mu-type opioid receptor [4] it was 2 nM; in [5], 12 nM. Moreover, the %max in assay [7] came out at 26%.

By EC50 is commonly meant the midpoint of the concentration-response curve. As usually defined, the Ki is the dissociation constant of the complex between target and ligand, obtained from inhibition or displacement.
